# Measurements as given in patent US11135445B2, “Antimicrobial photodynamic inactivation procedure and system” (The General Hospital Corporation, priority 2014, dated 2021).
# Assays:
# [1] = system: S. aureus; assay: MB-mediated PDI in vitro with/without KI; type: cell-based, Staphylococcus aureus (NCTC 8325); conditions: without light
# Description: (§1) 2) Staphylococcus aureus (NCTC 8325) and Escherichia coli K12 (ATCC 33780) were chosen as representative Gram (+) and Gram (−) bacteria respectively, for in vitro studies. A colony of bacteria was suspended in 25 ml of brain heart infusion (BHI) broth (Becton, Dickinson, and Company, Franklin Lakes, N.J.) and grown overnight in a shaker incubator (New Brunswick Scientific, Edison, N.J.) at 120 rpm in aerobic condition at 37° C. An aliquot of 1 ml from overnight suspension was refreshed in fresh BHI for 2 hours at 37° C. to mid-log phase. Cell concentration was estimated by measuring the optical density (OD) at 600 nm [OD of 0.8=10^8 colony forming units (CFU) cells/mL]. Bacterial suspension was centrifuged, washed and re-suspended in PBS to arrest microbial growth, and used (10^8 CFU) for the in vitro or in vivo experiments.
# (§2) In vitro PDI studies were carried with S. aureus and with E. coli. […] An aliquot of 100 ul was used as dark control from each sample, another (100 ul) was irradiated with 5 J/cm^2 dose of light (660 nm light) and then placed in a new 96 well plate. The aliquots were serially diluted 10-fold in PBS to give dilutions of 10^1 to 10^5 times in addition to the original concentration. From each dilution 10 microleter aliquots were seeded horizontally on BHI agar. […] Each experiment was performed at least three times.
# [2] = system: E. coli; assay: MB-mediated PDI in vitro with/without KI; type: cell-based, Escherichia coli K12 (ATCC 33780); conditions: without light
# Description: as §1, §2
# [3] = system: S. aureus; assay: Bacteria added after completion of light delivery (MB); type: cell-based, Staphylococcus aureus; conditions: solution irradiated 5 J/cm^2, incubation 5-30 minutes
# Description: (§3) To verify if long-lived species such as molecular iodine (I2) or hypoiodous acid (HOI) could be responsible for increased bacterial killing we added bacteria after completion of light delivery.
# (§4) We irradiated with 5 J/cm^2 the solutions containing MB or MB+KI to generate the iodine species observed in the spectra described above. Since […] is a stable molecule, and even HOI is reasonably stable with a measurable half-life, by incubating the cells in a solution that could contain photochemically produced bactericidal concentrations of I2 or HOI, we expected to observe bacterial killing. We added bacterial cells and we evaluated the survival fraction of bacteria in an incubation time range between 5 and 30 minutes.
# [4] = system: E. coli; assay: as above; type: cell-based, Escherichia coli; conditions: solution irradiated 5 J/cm^2, incubation 5-30 minutes
# Description: as §3, §4
# [5] = system: MRSA; assay: In vivo PDI of burn infected with bioluminescent MRSA; design: species or system murine
# Description: In another related embodiment, the implementation of invention as discussed in Example 1 was extended to in vivo studies in a murine infection model of burn and carried out with the use of bioluminescent MRSA and in vivo imaging. The goal here was to verify the increase of the efficacy of PDI-process of bacterial killing by adding KI to MB in an in vivo infection model.
# Aggregately, FIGS. 17A through 17E represent a set of 5 representative bioluminescence image time courses from the burn (each time course from a single mouse in each of the 5 groups) infected with MRSA. […] The amount of light required to eradicate bacteria from the wound was much less when the bacteria treated with the (MB+KI) solution was irradiated than when MB alone was used to pre-treat bacteria prior to irradiation.
structure (smiles),measurement,setting,value
"CN(C)c1ccc2nc3ccc(=[N+](C)C)cc-3sc2c1 [MB, Methylene blue]",dark toxicity,[1],lack of killing without light
same,dark toxicity,[2],lack of killing without light
same,killing of bacteria added after irradiation of the solution,[3],did not observe any bacterial killing
same,killing of bacteria added after irradiation of the solution,[4],did not observe any bacterial killing
same,bacterial bioluminescence during PDI,"[5]; 50 μM MB, with or without 10 mM KI, 660 nm up to 150 J/cm^2",light dose-dependent reduction
same,decrease in bacterial bioluminescence,"[5]; 660 nm light, n=6",around 2 log unit
same,bacterial re-growth / recurrence after PDI,[5]; follow-up over days after PDI,not effective to prevent recurrence
